Results on 4 compounds are retold here after ChEMBL document CHEMBL4196018, “New antitumor anthra[2,3-b]furan-3-carboxamides: Synthesis and structure-activity relationship” (Eur J Med Chem, 2018).

SMILES strings stand for the structures. Activity calls are given as the source filed them. No cut-off for these calls is given here.

The nature of data set [1]: Antiproliferative activity against human K562/4 cells after 72 hrs by MTT assay. The class given is functional, cell-based. Conditions: K562/4, 72 h.
Data set [2] can be described thus: Substrate activity at P-gp in human K562/4 cells assessed as test compound accumulation at 2 uM after 1 to 24 hrs by flow cytometry. The class given is ADME, cell-based. In general terms: Flow cytometry measures light scatter and fluorescence of single cells or particles in a stream.
Data set [3] can be described thus: Substrate activity at P-gp in human K562/4 cells assessed as test compound accumulation at 2 uM after 1 to 24 hrs in presence of P-gp inhibitor tariquidar by flow cytometry. Format: ADME, cell-based.
Data set [4] can be described thus: Drug uptake in human K562 cells at 2 uM after 1 to 24 hrs by flow cytometry. The class given is ADME, cell-based. Conditions: k562, 2 µM.
Data set [5] in a line: Substrate activity at P-gp in human K562/4 cells assessed as test compound accumulation at 1 uM after 1 to 24 hrs by flow cytometry. The class given is ADME, cell-based.
The subject of the next data set is L1210. As to the kind of experiment: Antiproliferative activity against mouse L1210 cells after 48 hrs by MTT assay. The class given is functional, cell-based. Conditions: L1210, 48 h. For orientation: Formazan colour is commonly taken as a measure of viable cells.
For the next data set, the system named is CCRF-CEM. Put plainly: Antiproliferative activity against human CEM cells after 72 hrs by MTT assay. The class given is functional, cell-based.
Another data set deals with HeLa. As to the kind of experiment: Antiproliferative activity against human HeLa cells after 72 hrs by MTT assay. The class given is functional, cell-based.
Data set [6] concerns HCT-116. Put plainly: Antiproliferative activity against human HCT116 cells after 72 hrs by MTT assay. Format: functional, cell-based. Conditions: HCT-116, 72 h.
In data set [7] the test system is HCT-116. Put plainly: Antiproliferative activity against p53 knockout human HCT116 cells after 72 hrs by MTT assay. Conditions: HCT-116, 72 h. Format: functional, cell-based.
Data set [8] can be described thus: Resistance index, ratio of IC50 for p53 knockout human HCT116 cells to IC50 for human HCT116 cells. Format: functional.
Data set [9] relates to K562. As to the kind of experiment: Antiproliferative activity against human K562 cells after 72 hrs by MTT assay. Format: functional, cell-based. Conditions: K562, 72 h.
A short description of data set [10]: Resistance index, ratio of IC50 for human K562/4 cells to IC50 for human K562 cells. Format: functional.
The subject of a further data set is Lymphocyte. As to the kind of experiment: Cytotoxicity against human lymphocytes assessed as reduction in cell viability at 25 uM after 72 hrs by MTT assay. Format: cell-based.
Data set [11] has as its target T1, DNA topoisomerase 1 (Homo sapiens) (UniProt P11387).
T1 sequence (whole entry): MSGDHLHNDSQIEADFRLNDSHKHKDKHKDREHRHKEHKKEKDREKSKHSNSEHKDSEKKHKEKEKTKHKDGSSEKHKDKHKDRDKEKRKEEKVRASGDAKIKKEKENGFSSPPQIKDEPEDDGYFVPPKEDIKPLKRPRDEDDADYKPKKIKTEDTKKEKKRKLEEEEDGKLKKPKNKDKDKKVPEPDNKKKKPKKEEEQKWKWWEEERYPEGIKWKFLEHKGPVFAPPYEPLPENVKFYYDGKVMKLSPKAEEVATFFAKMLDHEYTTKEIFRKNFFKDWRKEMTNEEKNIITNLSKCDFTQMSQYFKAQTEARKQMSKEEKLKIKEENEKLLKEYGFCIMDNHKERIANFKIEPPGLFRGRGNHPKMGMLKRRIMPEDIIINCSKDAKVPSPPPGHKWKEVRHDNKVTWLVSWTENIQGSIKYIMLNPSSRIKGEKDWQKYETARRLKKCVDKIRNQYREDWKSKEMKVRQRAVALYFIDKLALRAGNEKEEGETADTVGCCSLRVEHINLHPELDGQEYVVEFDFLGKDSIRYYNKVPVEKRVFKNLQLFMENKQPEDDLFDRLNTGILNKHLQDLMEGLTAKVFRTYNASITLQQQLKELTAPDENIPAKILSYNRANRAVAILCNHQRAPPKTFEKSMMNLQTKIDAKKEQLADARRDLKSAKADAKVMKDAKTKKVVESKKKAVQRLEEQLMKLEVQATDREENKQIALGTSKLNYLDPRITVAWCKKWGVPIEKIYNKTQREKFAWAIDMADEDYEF
As to the kind of experiment: Inhibition of human topoisomerase-1 at 10 uM using supercoiled pBR322 DNA as substrate after 30 mins by agarose gel electrophoresis method.

For data set [12], the system named is K562. As to the kind of experiment: Cell cycle arrest in human K562 cells assessed as accumulation at G2/M phase at 1 uM after 24 hrs by propidium iodide staining based flow cytometry. The class given is functional.
For data set [13], the species on record is Homo sapiens. Put plainly: Cell cycle arrest in human K562/4 cells assessed as accumulation at G2/M phase at 1 uM after 24 hrs by propidium iodide staining based flow cytometry. The class given is functional.
In data set [14] the test system is K562. As to the kind of experiment: Cell cycle arrest in human K562 cells assessed as accumulation at sub-G1 phase at 1 uM up to 48 hrs by propidium iodide staining based flow cytometry relative to control. Format: functional.
Data set [15] is described as follows: Cell cycle arrest in human K562/4 cells assessed as accumulation at sub-G1 phase at 1 uM up to 48 hrs by propidium iodide staining based flow cytometry relative to control. The class given is functional.
Data set [16] concerns MKN-45. As to the kind of experiment: Induction of ROS generation in human MKN45 cells at 0.1 to 1 uM after 30 mins by H2DCFDA staining based flow cytometry. Format: functional, cell-based.
The test system of data set [17] is TMK-1. As to the kind of experiment: Induction of ROS generation in human TMK1 cells at 0.1 to 1 uM after 30 mins by H2DCFDA staining based flow cytometry. Format: functional, cell-based.
The subject of data set [18] is MKN-45. As to the kind of experiment: Induction of apoptosis in human MKN45 cells after 24 hrs by Annexin V-FITC staining based flow cytometry. Format: functional, cell-based.
The subject of data set [19] is TMK-1. Put plainly: Induction of apoptosis in human TMK1 cells after 24 hrs by Annexin V-FITC staining based flow cytometry. The class given is functional, cell-based.
Data set [20] deals with MKN-45. Put plainly: Induction of apoptosis in human MKN45 cells at 1 uM after 24 hrs by Annexin V-FITC staining based flow cytometry relative to control. The class given is functional.
The subject of data set [21] is TMK-1. As to the kind of experiment: Induction of apoptosis in human TMK1 cells at 1 uM after 24 hrs by Annexin V-FITC staining based flow cytometry relative to control. Format: functional.
The species entered for data set [22] is Homo sapiens. Put plainly: Cell cycle arrest in human K562/4 cells at 1 uM up to 48 hrs by propidium iodide staining based flow cytometry. The class given is functional.
Data set [23] has as its target T1, DNA topoisomerase 1 (Homo sapiens). As to the kind of experiment: Inhibition of human topoisomerase-1 at 1 to 30 uM using supercoiled pBR322 DNA as substrate after 30 mins by agarose gel electrophoresis method.
For data set [24], the system named is K562. As to the kind of experiment: Cell cycle arrest in human K562 cells at 1 uM up to 48 hrs by propidium iodide staining based flow cytometry. The class given is functional.

`COc1cccc2c1C(=O)c1c(O)c3c(c(O)c1C2=O)C[C@@](O)(C(=O)CO)C[C@@H]3O[C@H]1C[C@H](N)[C@H](O)[C@H](C)O1` [DOXORUBICIN]: the concentration for half-maximal inhibition (IC50) in data set [1] was determined as 9800 nM. In addition, the figures for the Activity result in data set [2] and in [3] were “Active” and “Not Active”, respectively. In addition, the Drug uptake result in data set [4] is “Active”.

For `COc1cc2c(cc1OC)CN(CCc1ccc(NC(=O)c3cc(OC)c(OC)cc3NC(=O)c3cnc4ccccc4c3)cc1)CC2`, in data set [5], the Activity entry is “Not Active”.

`O=C1c2ccccc2C(=O)c2c1c(O)c1occ(C(=O)NC3CCCNC3)c1c2O` (racemic): the IC50 with L1210 was found to be 700 nM; with CCRF-CEM, 900 nM; in the data set with HeLa it was 700 nM; with HCT-116 [6] it was 600 nM; in the data set with HCT-116 [7], 800 nM; in the data set on K562 [9] it was 600 nM. In addition, it took 1200 nM to reach half-maximal inhibition in data set [1] (IC50). For the same compound, the figures for the “Ratio IC50” value in data set [8] and in [10] were 1.3 and 2.1, respectively. For the same compound, the Activity result was “Non-Toxic” in the data set with Lymphocyte; “Not Active” in data set [2]; greater than 70% with K562 [14]; greater than 70% in data set [15]; “Dose-dependent effect” in the data set on MKN-45 [18]; “Dose-dependent effect” with TMK-1 [19]. The Activity in the data set on MKN-45 [20] and in the data set with TMK-1 [21] was 60 - 90% each time. The Drug uptake entry in [4] is reported as “Active”. The inhibition entry in data set [11] is “Active”. Besides, the outcome in the data set on K562 [12], in the data set filed under Homo sapiens [13], with MKN-45 [16] and in the data set on TMK-1 [17] was Active.

Regarding `N[C@H]1CCN(C(=O)c2c(C(F)(F)F)oc3c(O)c4c(c(O)c23)C(=O)c2ccccc2C4=O)C1`, the result in the data set filed under Homo sapiens [22] and in the data set on K562 [24] was Active. Further, the IC50 stood at 1700 nM in the data set on L1210; 4000 nM with CCRF-CEM; 4400 nM in the data set with HeLa; 5300 nM in the data set with HCT-116 [6]; 4600 nM in the data set with HCT-116 [7]; 3600 nM in the data set with K562 [9]. For the same compound, in [1], the IC50 was 2200 nM. The “Ratio IC50” value is recorded as 0.9 in data set [8] and 0.6 in data set [10]. Moreover, in data set [2], the Activity entry is listed as “Not Active”. Besides, the Drug uptake entry in data set [4] was “Active”. In addition, the inhibition entry in data set [23] was “inactive”.

By IC50 is commonly meant the concentration that gives 50% inhibition. High values mean weaker potency, low ones greater potency.
